Consider eleven compounds from PubChem BioAssay (NCI).

Assay in all cases: growth of human tumour cells (NCI), 48 h
The subject of test [1] is LOX IMVI melanoma.
For test [2], the system named is HCT-15 colon.
Test [3] deals with M14 melanoma.
For test [4], the system named is OVCAR-8 ovarian.
Test [5] concerns HOP-62 NSCLC.
Test [6] deals with T-47D breast.
Test [7] concerns SW-620 colon.
Test [8] concerns SR leukemia.
Test [9] relates to MOLT-4 leukemia.
Test [10] concerns ACHN renal.
Test [11] concerns SF-539 CNS.
The subject of test [12] is NCI-H522 lung.
Test [13] deals with MCF7 breast.
Test [14] concerns HS 578T breast.
The test system of test [15] is PC-3 prostate.

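Following 48 hours of exposure in 96-well plates, responses at five concentrations were used to interpolate endpoints linearly. Definition used: TGI = concentration required for complete inhibition of growth.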

Turning to `c1cc(-c2ccc(-c3ccsc3)s2)cs1`, the TGI in test [1], in [2], in [3], in test [4], in test [5] and in test [6] was over 100 µM in each case. The TGI was over 100 µM in test [7]; over 100 µM in [8]; over 100 µM in test [9]; over 100 µM in test [10]; 89.8 µM in test [11]; over 100 µM in test [12]. The TGI in test [13] and in test [14] was over 100 µM throughout.
Take `COc1ccc(-c2oc3cc(-c4cc5oc(-c6ccc(OC)cc6)c(-c6ccc(OC)cc6)c5cc4OC)c(OC)cc3c2-c2ccc(OC)cc2)cc1`: the TGI in test [1], in test [2], in test [3], in test [4], in test [15] and in test [5] was over 100 µM in each case. The TGI in test [7], in [8], in test [9], in test [10], in [11] and in test [12] was over 100 µM throughout. Besides, the TGI in test [13] and in test [14] was over 100 µM in each case.
As to `CC(C)(C)OC(=O)N(CCCCNC(=O)C(F)(F)F)CCCNC(=O)C(F)(F)F`, the TGI in test [2], in test [3], in test [4], in [15], in test [5] and in test [6] was over 100 µM in each case. The TGI in [7], in test [8], in [9], in [10], in test [11] and in test [12] was over 100 µM each time. Moreover, the TGI in test [13] and in test [14] was over 100 µM throughout.
`Cc1ccc(S[C@@](C=O)(NC(=O)OCc2ccccc2)C(F)(F)F)cc1`: the TGI in [1] stood at 48.8 µM; in test [2], 54.4 µM; in [3], 78.6 µM; in test [4], 43.7 µM; in test [15] it was 54.9 µM; in test [5], 88.3 µM. The TGI in test [6] is 71 µM; in test [7] it was 66.9 µM; in test [8] it was 44.4 µM; in test [9], 52 µM; in test [11] it was 70.9 µM; in test [13] it was 78.4 µM. For the same compound, in test [14], the TGI was over 100 µM.
With `CN1CCOC(C(NC(=O)c2ccccc2)c2ccccc2)C1=O` (stereo not drawn), the TGI in test [1], in test [2], in test [3], in test [4], in [5] and in [7] was over 100 µM each time. Further, the TGI in [8], in test [9], in [10], in test [11] and in test [12] was over 100 µM throughout.
With `C=CCC(CCC(C)=O)(C(=O)OCC)C(=O)OCC`, the TGI in test [2], in test [3], in test [4], in [15], in test [5] and in test [6] was over 100 µM throughout. The TGI in test [7], in [8], in [9], in [10], in test [11] and in test [12] was over 100 µM throughout. The TGI in test [13] and in test [14] was over 100 µM each time.
As to `NC1=NC2(COC(c3ccccc3)(c3ccccc3)c3ccccc3)OC(COC(c3ccccc3)(c3ccccc3)c3ccccc3)C(O)C2O1` (stereo not drawn), the TGI in [1], in [2], in [3], in [4], in [15] and in test [5] was over 100 µM throughout. The TGI in test [6], in test [7], in test [8], in test [9], in test [10] and in [11] was over 100 µM throughout. In addition, the TGI in test [12] and in test [13] was over 100 µM throughout.
Consider `CC(C)(CN1CCCCC1)C(=O)/C=C/c1ccc(Br)cc1`, for which the TGI in test [1] was 4.63 µM; in test [2], over 24.7 µM; in test [3] it was 4.75 µM; in test [4] it was 6.98 µM; in test [5] it was 9.82 µM; in [7], 6.83 µM. Besides, the TGI was found to be 7.68 µM in test [8]; 6.87 µM in test [9]; 14.5 µM in test [10]; 4.96 µM in test [11]; 3.98 µM in [12].
Take `O=[N+]([O-])c1ccc(/C=N/Nc2nc3ccccc3[nH]2)o1`: the TGI amounted to 35 µM in [1]; 42.8 µM in test [2]; 27.6 µM in [3]; 38 µM in test [4]; 49.2 µM in test [15]; 35.4 µM in [5]. For the same compound, the TGI in test [6] was determined as 35.8 µM; in [7], 28.3 µM; in test [8], 23.6 µM; in [9], 27.3 µM; in test [11] it was 13.8 µM; in test [12] it was 41.2 µM. The TGI in test [14] is over 100 µM.
Consider `O=C(c1ccccc1)C1(Br)S(=O)(=O)OCCOS1(=O)=O`, for which the TGI in test [1], in test [2], in [3], in test [4], in test [5] and in test [7] was over 100 µM throughout. The TGI in test [8], in [9], in test [10], in test [11] and in [12] was over 100 µM throughout.
Turning to `CCOC(=O)C1S(=O)(=O)OCCOS1(=O)=O`, the TGI in [1], in test [3], in test [4], in [5], in test [7] and in test [8] was over 100 µM each time. Also, the TGI in test [9], in test [11] and in test [12] was over 100 µM throughout.
